Holding throughout (type): in vivo
Test [1] concerns Helicoverpa armigera. In words: Helicoverpa armigera diet incorporation method. The note with it: third instar larvae, dead and moribund combined, 96 h after release. As for the experimental part:
(§1) Test Solutions were Prepared According to the Procedure Described Herein Below (500 PPM):
(§2) • 1. Eppendorf Vortex mixer (ThermoMixer C) and 1.5 mL Eppendorf tubes • 2. Zirconia (Zirconium-Yttrium) beads having diameter of 0.8 to 1.0 mm • 3. Microscope • 4. Beaker 100 mL • 5. Micro-pipette Reagents: • 1. Surfactant Solution • 2. De-mineralized (DM) Water • 1. Weigh 10 mg of the compound of the present invention to be tested in an Eppendorf Tube. • 2. Add 200 mg of the Surfactant Solution into the tube. • 3. Add 600 mg of Zirconia beads into the above mixture. • 4. Fix the tube in Eppendorf Vortex mixer and start vortexing at 2000 rpm. • 5. Mix on Vortex mixer for 30 minutes. After 30 minutes, observe the sample over a microscope at 400× resolution. • 6. If the Maximum particle size is more than 5 μm or average particle size is more than 2 μm or the particle size distribution is uneven, continue vortexing for another 30 minutes and again check the particle size using the microscope. Continue till the average particle size is below 2 microns. • 7. When the required particle size is achieved, add 1.0 mL DM water into the tube, close the cap, shake the tube thoroughly and transfer the contents, along with the beads, into a beaker. • 8. To rinse the tube, add another 1.0 mL of DM water into the tube, close the cap, shake well and transfer this into the same beaker. • 9. Repeat Step no. 8 one more time so that the tube is rinsed well and the compound of the present invention to be tested is transferred to the beaker. • 10. Add 16.8 mL of DM water into the beaker and stir well. • 11. The homogeneous dispersion can then be decanted into a glass vial, immediately, to separate the Zirconia beads. • 12. Immediately use this sample for biological testing. • 13. Further dilutions can be prepared by taking appropriate quantity of the aliquot of Step 10, immediately after stirring, and diluting as per requirement. The sample solution must be well mixed just before biological testing.
(§3) Diet incorporation method was used, in which and semi-synthetic diet was incorporated into the test solution when the temperature is approximately 50° C. in the bioassay containers and stirred thoroughly for properly mixing and then was allowed to cool for 30 min. The solidified diet was cut into equal pieces, and then each piece was transferred in one cell in Bio-assay trays. A single third instar starved larva was released into each of these cells of bioassay trays and the tray was covered with the lid. The bio-assay trays were kept under laboratory conditions at a temperature of 25° C. and Relative Humidity of 70%. Observations on dead, moribund and live larvae were recorded at 96 h after the release of larvae. Percent mortality was calculated by combining dead and moribund larvae. The following compound numbers

The subject of test [2] is Plutella xylostella. Briefly: whole plant or invertebrate. The settings on record: foliar, cabbage leaf dip, second instar larvae, dead and moribund combined, 72 h after release. The procedure, abridged: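 Compounds milled with zirconia beads into surfactant dispersion (500 ppm stock), diluted in 0.01% Triton-X. Cabbage leaves dipped 10 s, shade-dried 20 min; one second-instar larva per cell, 25 °C, 70% RH. Mortality (dead plus moribund) scored at 72 h.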

In test [3] the test system is Spodoptera litura. Briefly: Spodoptera litura diet incorporation method. The note with it: third instar larvae, dead and moribund combined, 96 h after release. As for the experimental part:
as §1, §2
as §3, with “which” for “which and”

On to `COc1cc(C(=O)Nc2c(Cl)cc3ccnn3c2C(=O)NCC2CC2)n(-c2ncccc2Cl)n1` [Compound 131, 5-chloro-6-(1-(3-chloropyridin-2-yl)-3-methoxy-1H-pyrazole-5-carboxamido)-N-(cyclopropylmethyl)pyrazolo[1,5-a]pyridine-7-carboxamide], for which the mortality at 300 ppm in test [1] and in test [2] was more than 70% throughout. For the compound `Cc1cc2ccnn2c(C(=O)NC2(C)COC2)c1NC(=O)c1cc(Br)nn1-c1ncccc1Cl` [Compound 173, 6-(3-bromo-1-(3-chloropyridin-2-yl)-1H-pyrazole-5-carboxamido)-5-methyl-N-(3-methyloxetan-3-yl)pyrazolo[1,5-a]pyridine-7-carboxamide], the mortality at 300 ppm in test [1] and in test [2] was more than 70% throughout. Take `CCNC(=O)c1c(NC(=O)c2cc(C(F)(F)F)nn2-c2ncccc2Cl)c(Br)cc2ccnn12` [Compound 127, 5-bromo-6-(1-(3-chloropyridin-2-yl)-3-(trifluoromethyl)-1H-pyrazole-5-carboxamido)-N-ethylpyrazolo[1,5-a]pyridine-7-carboxamide]: the mortality at 300 ppm in test [1] and in test [2] was more than 70% each time. For `C=CCNC(=O)c1c(NC(=O)c2cc(N3CC(F)(F)C3)nn2-c2ncccc2Cl)c(C)cc2ccnn12` [Compound 86, N-allyl-6-(1-(3-chloropyridin-2-yl)-3-(3,3-difluoroazetidin-1-yl)-1H-pyrazole-5-carboxamido)-5-methylpyrazolo[1,5-a]pyridine-7-carboxamide], the mortality at 300 ppm in test [3] is more than 70%. In the case of `Cc1cc2ccnn2c(C(=O)NCC2CC2)c1NC(=O)c1cc(Cn2nnc(C(F)(F)F)n2)nn1-c1ncccc1Cl` [Compound 171, 6-(1-(3-chloropyridin-2-yl)-3-((5-(trifluoromethyl)-2H-tetrazol-2-yl)methyl)-1H-pyrazole-5-carboxamido)-N-(cyclopropylmethyl)-5-methylpyrazolo[1,5-a]pyridine-7-carboxamide], the mortality at 300 ppm in test [1] and in test [2] was more than 70% throughout. With `Cc1cc2ccnn2c(C(=O)NC2CC2)c1NC(=O)c1cc(OC2CSC2)nn1-c1ncccc1Cl` [Compound 145, 6-(1-(3-chloropyridin-2-yl)-3-(thietan-3-yloxy)-1H-pyrazole-5-carboxamido)-N-cyclopropyl-5-methylpyrazolo[1,5-a]pyridine-7-carboxamide], the mortality at 300 ppm in test [3] was more than 70%. On the same count and under the same terms, the result for `CCNC(=O)c1c(NC(=O)c2cc(N3CC(F)(F)C3)nn2-c2ncccc2Cl)c(C)cc2ccnn12` [Compound 83, 6-(1-(3-chloropyridin-2-yl)-3-(3,3-difluoroazetidin-1-yl)-1H-pyrazole-5-carboxamido)-N-ethyl-5-methylpyrazolo[1,5-a]pyridine-7-carboxamide] reads more than 70%; that for `COc1cc(C(=O)Nc2c(C)cc3ccnn3c2C(=O)NC(C)C(F)(F)F)n(-c2ncccc2Cl)n1` (stereo not shown) [Compound 217, 6-(1-(3-chloropyridin-2-yl)-3-methoxy-1H-pyrazole-5-carboxamido)-5-methyl-N-(1,1,1-trifluoropropan-2-yl)pyrazolo[1,5-a]pyridine-7-carboxamide], more than 70%. On to `CCC(C)CNC(=O)c1c(NC(=O)c2cc(OC)nn2-c2ncccc2Cl)c(C)cc2ccnn12` (stereo not shown) [Compound 199, 6-(1-(3-chloropyridin-2-yl)-3-methoxy-1H-pyrazole-5-carboxamido)-5-methyl-N-(2-methylbutyl)pyrazolo[1,5-a]pyridine-7-carboxamide], for which the mortality at 300 ppm in test [1] and in test [2] was more than 70% in each case. As for `Cc1cc2ccnn2c(C(=O)NCCC(C)C)c1NC(=O)c1cc(Br)nn1-c1ncccc1Cl` [Compound 206, 6-(3-bromo-1-(3-chloropyridin-2-yl)-1H-pyrazole-5-carboxamido)-N-isopentyl-5-methylpyrazolo[1,5-a]pyridine-7-carboxamide], the mortality at 300 ppm in test [3] is more than 70%. As for `COc1cc(C(=O)Nc2c(Br)cc3ccnn3c2C(=O)NC(C)C)n(-c2ncccc2Cl)n1` [Compound 130, 5-bromo-6-(1-(3-chloropyridin-2-yl)-3-methoxy-1H-pyrazole-5-carboxamido)-N-isopropylpyrazolo[1,5-a]pyridine-7-carboxamide], the mortality at 300 ppm in test [1] and in test [2] was more than 70% throughout. Regarding `CONC(=O)c1c(NC(=O)c2cc(N3CC(F)(F)C3)nn2-c2ncccc2Cl)c(C)cc2ccnn12` [Compound 84, 6-(1-(3-chloropyridin-2-yl)-3-(3,3-difluoroazetidin-1-yl)-1H-pyrazole-5-carboxamido)-N-methoxy-5-methylpyrazolo[1,5-a]pyridine-7-carboxamide], the mortality at 300 ppm in test [1] and in test [2] was more than 70% each time. For the compound `CCONC(=O)c1c(NC(=O)c2cc(OCC(F)(F)F)nn2-c2ncccc2Cl)c(C)cc2ccnn12` [Compound 115, 6-(1-(3-chloropyridin-2-yl)-3-(2,2,2-trifluoroethoxy)-1H-pyrazole-5-carboxamido)-N-ethoxy-5-methylpyrazolo[1,5-a]pyridine-7-carboxamide], the mortality at 300 ppm in test [1] and in test [2] was more than 70% each time. With `COc1cc(C(=O)Nc2c(C)cc3ccnn3c2C(=O)NC2(C)CC2)n(-c2ncccc2Cl)n1` [Compound 219, 6-(1-(3-chloropyridin-2-yl)-3-methoxy-1H-pyrazole-5-carboxamido)-5-methyl-N-(1-methylcyclopropyl)pyrazolo[1,5-a]pyridine-7-carboxamide], in test [3], the mortality at 300 ppm is more than 70%. As to `Cc1cc2ccnn2c(C(=O)NCC(F)(F)F)c1NC(=O)c1cc(OCC(F)(F)F)nn1-c1ncccc1Cl` [Compound 114, 6-(1-(3-chloropyridin-2-yl)-3-(2,2,2-trifluoroethoxy)-1H-pyrazole-5-carboxamido)-5-methyl-N-(2,2,2-trifluoroethyl)pyrazolo[1,5-a]pyridine-7-carboxamide], the mortality at 300 ppm in test [1] and in test [2] was more than 70% in each case. Take `Cc1cc2ccnn2c(C(=O)NC2C[S+]([O-])C2)c1NC(=O)c1cc(Br)nn1-c1ncccc1Cl` (stereo not shown) [Compound 209, 6-(3-bromo-1-(3-chloropyridin-2-yl)-1H-pyrazole-5-carboxamido)-5-methyl-N-(1-oxidothietan-3-yl)pyrazolo[1,5-a]pyridine-7-carboxamide]: the mortality at 300 ppm in test [1] and in test [2] was more than 70% throughout. As to `Cc1cc2ccnn2c(C(=O)NOC(C)C)c1NC(=O)c1cc(OCC(F)(F)F)nn1-c1ncccc1Cl` [Compound 116, 6-(1-(3-chloropyridin-2-yl)-3-(2,2,2-trifluoroethoxy)-1H-pyrazole-5-carboxamido)-N-isopropoxy-5-methylpyrazolo[1,5-a]pyridine-7-carboxamide], the mortality at 300 ppm in test [1] and in test [2] was more than 70% in each case.

`O=C(Nc1c(Cl)cc2ccnn2c1C(=O)NCC(F)(F)F)c1cc(Br)nn1-c1ncccc1Cl` [Compound 143, 6-(3-bromo-1-(3-chloropyridin-2-yl)-1H-pyrazole-5-carboxamido)-5-chloro-N-(2,2,2-trifluoroethyl)pyrazolo[1,5-a]pyridine-7-carboxamide]: the mortality at 300 ppm in test [1] is more than 70%.

For the compound `Cc1cc2ccnn2c(C(=O)NCC#N)c1NC(=O)c1cc(C(F)(F)F)nn1-c1ncccc1Cl` [Compound 117, 6-(1-(3-chloropyridin-2-yl)-3-(trifluoromethyl)-1H-pyrazole-5-carboxamido)-N-(cyanomethyl)-5-methylpyrazolo[1,5-a]pyridine-7-carboxamide], the mortality at 300 ppm in test [1] and in test [2] was more than 70% throughout.

For orientation: mortality means the percentage killed.
